# Columns and labels:
# recombinant Ipi12D04 = test: Functional assay of recombinant Ipi12D04 (pyridine nucleotide assay at 340 nm, GC-MS of products); format: biochemical, Ips pini; conditions: for reaction product of reduction by Ipi12D04 enzyme (stereoisomer by chiral GC): in the presence of NADPH, chiral column, compared with racemic standard
# Method: Enzyme activity is determined by a pyridine nucleotide (PN) binding assay that monitors production or consumption of NADH/NADPH by measuring the absorbance of the catalysts reaction at 340 nm using a spectrophotometer. The reactions include reaction buffer (0.1 M NaP pH 7.8 and 1.1 mM EDTA), enzyme, PN, and substrate (monoterpene) in a 1 ml total volume and the absorbance was measured over time at room temperature. The volatiles produced from the reactions were extracted three times with pentane:ether (1:1) spiked with 200 n g/ml n-octanol (internal standard) and concentrated to approximately 100 ul with nitrogen gas. The samples were directly analyzed by coupled GC-MS at the Nevada Proteomics Center at UNR.
# Enzyme activity was determined by a pyridine nucleotide (PN) binding assay that monitored production or consumption of NADH/NADPH spectrophotometrically. The reaction mixture included reaction buffer (0.1 M NaP pH 7.8 and 1.1 mM EDTA), enzyme, PN, and substrate (monoterpene) in a 1 ml total volume. The absorbance was measured over time at room temperature. The reactions were extracted three times with pentane:ether (1:1) spiked with 200 ng/ml n-octanol (internal standard) to extract monoterpenoids and concentrated to approximately 100 ul with nitrogen gas. The samples were directly analyzed by coupled GC-MS at the Nevada Proteomics Center at UNR.
# Biochemical reactions catalyzed by recombinant Ipi12D04, as determined by functional assays, are summarized below. In general, the enzyme functions as an oxidoreductase, using NAD(P) or NAD(P)H as cofactors, depending on whether it is oxidizing or reducing a substrate. […] Negative controls for all reactions included media from un-infected cells.
# [1] = tested on: western populations of Ips pini; conditions: cited from earlier work
# I. calligraphus = conditions: southeast U.S.; cited from earlier work
# Ips. typographus = conditions: cited from earlier work
smiles,measurement,setting,value
"C=CC(=C)CC(O)C=C(C)C (racemic) [racemic ipsdienol, ipsdienol]",reaction product of oxidation by Ipi12D04 enzyme,"recombinant Ipi12D04; with NADP, GC and mass spectrum compared with ipsdienone standard",converts racemic ipsdienol to ipsdienone
same,attractiveness as aggregation pheromone,[1],not attractive at all
"C=CC(=C)CC(O)C=C(C)C (single isomer, unassigned; (+)) [(+)-ipsdienol]",behavioural response (attraction / dispersal),I. calligraphus,dispersed
"C=CC(=C)CC(O)C=C(C)C (single isomer, unassigned; (-)) [(−)-ipsdienol, 2-methyl-6-methylene-2,7-octadien-4-ol]",behavioural response (attraction / dispersal),I. calligraphus,attracted
C=CC(=C)C[C@@H](O)CC(C)C [(+)-ipsenol],expected conversion by Ipi12D04 enzyme,recombinant Ipi12D04; enzyme incubated with both NAD(P) and NAD(P)H,readily converted to (−)-ipsenol
C=CC(=C)CC(=O)C=C(C)C [ipsdienone],reaction product of reduction by Ipi12D04 enzyme (stereoisomer by chiral GC),recombinant Ipi12D04,reaction product was pure (−)-ipsdienol
C=CC(=C)C[C@@H](O)CC(C)C [ipsenol],behavioural response,Ips. typographus,anti-aggregation pheromone
C=CC(=C)CC(=O)CC(C)C [ipsenone],reaction product of reduction by Ipi12D04 enzyme (stereoisomer by chiral GC),recombinant Ipi12D04,reaction product was pure (−)-ipsdienol
